Reference: patent US8932563B2, “Higher loading zinc-containing films” (Colgate-Palmolive Company, priority 2009, dated 2015)

Assay: Zinc uptake from toothpaste onto artificial soft substrate
Format: in vitro ADME
Settings: for zinc uptake, ppm: Vitro-Skin incubated 1 hour, 1:2 dilution
Procedure: Zinc uptake experiments were performed to compare the amount of zinc delivered to an artificial soft substrate using the same level of zinc oxide films in toothpaste with different loadings. The films (Zn30 and Zn50) were incorporated into a MaxFresh Nite toothpaste base. The experiments included comparing:
Certain parameters for testing were kept constant for the experiments. They included:
Vitro-Skin incubated for 1 hour
1:2 dilution of toothpaste to deionized water
Two 5 mL washes of deionized water for 10 seconds
There also was an increase in binding with an increase in film concentration. The zinc uptake method quantifies the amount of zinc delivered to a soft substrate. Vitro-Skin was used as a model substrate because it mimics human skin. […] Also the films act as a delivery vehicle to deposit more zinc onto the substrate than its equivalent in powder form.

[1] = 1.0% film or powder in toothpaste

[O-2].[Zn+2] [ZnO Powder, Zinc Oxide]
zinc uptake, μg/cm^2 (0.15% powder in toothpaste): 5.7 μg/cm^2 | zinc uptake, ppm (0.15% powder in toothpaste): 2.05 ppm | zinc uptake, μg/cm^2 [1]: 21.5 μg/cm^2 | zinc uptake, ppm [1]: 59.7 ppm
